Reference: US9770026B2, “Substituted pyrimidine compound and uses thereof” (Shenyang Sinochem Agrochemicals R&D Co., Ltd., priority 2012, dated 2017)

Assays:
Diamond back moth = experiment: insecticidal activity against diamond back moth, airbrush spray; type: in vivo; settings: for pest or weed control at 600 µg/mL: 600 mg/L
Summary of the method: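 Airbrush leaf-disc spray test: both faces of 2 cm cabbage discs received 0.5 ml of test solution at 0.7 kg/cm^2. Solutions were made in acetone:methanol (1:1) and brought to concentration with 0.1% Tween 80 in water. Ten second-instar larvae per disc, triplicates, were held at 25° C and 60˜70% R.H., with mortality recorded at 72 hrs.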

armyworm = experiment: bioactivity test against armyworm, airbrush spray; type: in vivo; settings: for pest or weed control at 600 µg/mL: 600 mg/L, read-out: Insecticidal activity against armyworm (%)
[1] = system: Green peach aphids (Myzus Persicae Sulzer); experiment: bioactivity test against green peach aphid, airbrush foliar spray; type: in vivo; settings: for pest or weed control at 600 µg/mL: 600 mg/L, contrastive test, read-out: Insecticidal activity against peach aphid (%)
Summary of the method: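 Death rate was scored at 48 hrs, held at 25±1 C and 60±5% RH, following airbrush foliar spray (0.5 mL, 10 psi) onto cabbage leaf discs bearing about 15-30 aphids. Test solutions: compound dissolved in 1:1 acetone:methanol, brought to concentration with 0.1% tween 80 water.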

carmine spider mite = experiment: bioactivity test against carmine spider mite, airbrush spray; type: in vivo; settings: for pest or weed control at 600 µg/mL / Insecticidal activity against carmine spider mite (% ): contrastive test; for pest or weed control at 600 µg/mL: read-out: Insecticidal activity against carmine spider mite (% )
Summary of the method: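 Broadbean seedlings infested with adult mites were sprayed with compound (acetone/methanol stock diluted in 0.1% Tween 80 water) by airbrush at 0.7 kg/cm^2, 0.5 ml. Three replicates were run. Mortality was scored after 72 hrs.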

corn rust = experiment: protectant activity in vivo against corn rust; settings: for pest or weed control at 400 µg/mL: read-out: control effect against corn rust (%), 400 mg/L
wheat powdery mildew = experiment: protectant activity in vivo against wheat powdery mildew; settings: for pest or weed control at 400 µg/mL: read-out: control effect against wheat powdery mildew (%), 400 mg/L
cucumber downy mildew = experiment: protectant activity in vivo against cucumber downy mildew; settings: for pest or weed control at 400 µg/mL: read-out: control effect against cucumber downy mildew (%), 400 mg/L; for pest or weed control at 100 ppm: read-out: protectant activity against cucumber downy mildew in vivo, 100 ppm; for pest or weed control at 400 ppm: read-out: protectant activity against cucumber downy mildew in vivo, 400 ppm
[2] = Tetranychus cinnabarinus, 72 h, 600 mg/L
[3] = Zea mays, 168 h, protectant activity
[4] = Triticum aestivum, 168 h, protectant activity
[5] = Cucumis sativus, 168 h, protectant activity
[6] = 600 ppm, mortality after 72 hrs
[7] = 10 ppm, death rate after 48 hrs
[8] = 100 ppm, death rate after 48 hrs
[9] = 600 ppm, death rate after 48 hrs
[10] = 100 ppm, mortality after 72 hrs

CCc1ncnc(NCc2ccc(Oc3c(Cl)cc([N+](=O)[O-])cc3Cl)cc2)c1Cl [CK66, reference compound]
pest or weed control at 600 µg/mL (Diamond back moth; 72 h): 0%
pest or weed control at 600 µg/mL (armyworm; 72 h): 0%
pest or weed control at 600 µg/mL ([1]; Myzus persicae, foliar, 48 h): 0%
pest or weed control at 600 µg/mL (carmine spider mite; [2]): 0%
pest or weed control at 400 µg/mL (corn rust; [3]): 0%
pest or weed control at 400 µg/mL (wheat powdery mildew; [4]): 0%
pest or weed control at 400 µg/mL (cucumber downy mildew; [5]): 0%

FC(F)(F)c1cnc(Oc2ccc(CCNc3ncnc(Cl)c3Cl)cc2)c(Cl)c1 [CK72, reference compound]
pest or weed control at 600 µg/mL (Diamond back moth; 72 h): 0%
pest or weed control at 600 µg/mL (armyworm; 72 h): 71%
pest or weed control at 600 µg/mL ([1]; Myzus persicae, foliar, 48 h): 55%
pest or weed control at 600 µg/mL (carmine spider mite; [2]): 13%
pest or weed control at 6.25 µg/mL (corn rust; Zea mays, 168 h, read-out: control effect against corn rust (%), 6.25 mg/L, protectant activity): 0%
pest or weed control at 25 µg/mL (corn rust; Zea mays, 168 h, read-out: control effect against corn rust (%), 25 mg/L, protectant activity): 20%
pest or weed control at 100 µg/mL (corn rust; Zea mays, 168 h, read-out: control effect against corn rust (%), 100 mg/L, protectant activity): 80%
pest or weed control at 400 µg/mL (corn rust; [3]): 100%
pest or weed control at 6.25 µg/mL (wheat powdery mildew; Triticum aestivum, 168 h, read-out: control effect against wheat powdery mildew (%), 6.25 mg/L, protectant activity): 50%
pest or weed control at 25 µg/mL (wheat powdery mildew; Triticum aestivum, 168 h, read-out: control effect against wheat powdery mildew (%), 25 mg/L, protectant activity): 60%
pest or weed control at 100 µg/mL (wheat powdery mildew; Triticum aestivum, 168 h, read-out: control effect against wheat powdery mildew (%), 100 mg/L, protectant activity): 70%
pest or weed control at 400 µg/mL (wheat powdery mildew; [4]): 100%
pest or weed control at 25 µg/mL (cucumber downy mildew; Cucumis sativus, 168 h, read-out: control effect against cucumber downy mildew (%), 25 mg/L, protectant activity): 20%
pest or weed control at 50 µg/mL (cucumber downy mildew; Cucumis sativus, 168 h, read-out: control effect against cucumber downy mildew (%), 50 mg/L, protectant activity): 40%
pest or weed control at 100 µg/mL (cucumber downy mildew; Cucumis sativus, 168 h, read-out: control effect against cucumber downy mildew (%), 100 mg/L, protectant activity): 100%
pest or weed control at 400 µg/mL (cucumber downy mildew; [5]): 100%

CCc1ncnc(NCCc2ccc(Oc3ncc(Cl)cc3Cl)cc2)c1Cl [Compound I-583]
pest or weed control at 600 ppm (Diamond back moth; 72 h, 600 ppm, mortality after 72 hrs, read-out: control (test results against diamond back moth)): 100%
pest or weed control at 600 ppm (armyworm; 72 h, 600 ppm, mortality after 72 h): 100%
pest or weed control at 10 ppm ([1]; Myzus persicae, foliar, 48 h, 10 ppm, death rate after 48 hrs): 80 to 99%
pest or weed control at 100 ppm ([1]; Myzus persicae, foliar, 48 h, 100 ppm, death rate after 48 hrs): 100%
pest or weed control at 600 ppm ([1]; Myzus persicae, foliar, 48 h, 600 ppm, death rate after 48 hrs): 100%
pest or weed control at 600 ppm (carmine spider mite; Tetranychus cinnabarinus, 72 h, 600 ppm, mortality after 72 hrs): 100%
pest or weed control at 25 ppm (corn rust; Zea mays, 168 h, read-out: protectant activity against corn rust in vivo, 25 ppm): 100%
pest or weed control at 100 ppm (corn rust; Zea mays, 168 h, read-out: protectant activity against corn rust in vivo, 100 ppm): 100%
pest or weed control at 400 ppm (corn rust; Zea mays, 168 h, read-out: protectant activity against corn rust in vivo, 400 ppm): 100%
pest or weed control at 100 ppm (wheat powdery mildew; Triticum aestivum, 168 h, read-out: protectant activity against wheat powdery mildew in vivo, 100 ppm): 80 to 99%
pest or weed control at 400 ppm (wheat powdery mildew; Triticum aestivum, 168 h, read-out: protectant activity against wheat powdery mildew in vivo, 400 ppm): 80 to 99%
pest or weed control at 25 ppm (cucumber downy mildew; Cucumis sativus, 168 h, read-out: protectant activity against cucumber downy mildew in vivo, 25 ppm): 100%
pest or weed control at 50 ppm (cucumber downy mildew; Cucumis sativus, 168 h, read-out: protectant activity against cucumber downy mildew in vivo, 50 ppm): 80 to 99%
pest or weed control at 100 ppm (cucumber downy mildew; Cucumis sativus, 168 h): 100%
pest or weed control at 400 ppm (cucumber downy mildew; Cucumis sativus, 168 h): 100%

Cc1ncnc(NCCc2ccc(Oc3ccc(C(F)(F)F)cn3)cc2)c1Cl [Compound I-6732]
control (test results against diamond back moth) (Diamond back moth; [6]): 100%
control (test results against armyworm) (armyworm; 600 ppm, mortality after 72 h): 100%
control (test results against green peach aphid) [1, 7]: 100%
control (test results against green peach aphid) [1, 8]: 100%
control (test results against green peach aphid) [1, 9]: 100%
control against carmine spider mite (carmine spider mite; [6]): 100%
pest or weed control at 100 ppm (carmine spider mite; Tetranychus cinnabarinus, 72 h, 100 ppm, mortality after 72 hrs): 100%
protectant activity against corn rust in vivo (corn rust; 100 ppm): 100%
protectant activity against corn rust in vivo (corn rust; 400 ppm): 100%
pest or weed control at 6.25 ppm (corn rust; Zea mays, 168 h, read-out: protectant activity against corn rust in vivo, 6.25 ppm): 80 to 99%
protectant activity against wheat powdery mildew in vivo (wheat powdery mildew; 400 ppm): 100%
protectant activity against cucumber downy mildew in vivo (cucumber downy mildew; 25 ppm): 100%
protectant activity against cucumber downy mildew in vivo (cucumber downy mildew; 100 ppm): 100%
protectant activity against cucumber downy mildew in vivo (cucumber downy mildew; 400 ppm): 100%

CCc1ncnc(NCCc2ccc(Oc3ccc(C(F)(F)F)cn3)cc2)c1Cl [Compound I-6740]
control (test results against diamond back moth) (Diamond back moth; [10]): 100%
control (test results against diamond back moth) (Diamond back moth; [6]): 100%
control (test results against armyworm) (armyworm; 100 ppm, mortality after 72 h): 100%
control (test results against armyworm) (armyworm; 600 ppm, mortality after 72 h): 100%
control (test results against green peach aphid) ([1]; 5 ppm, death rate after 48 hrs): 100%
control (test results against green peach aphid) [1, 7]: 100%
control (test results against green peach aphid) [1, 8]: 100%
control (test results against green peach aphid) [1, 9]: 100%
Insecticidal activity against carmine spider mite (% ) (carmine spider mite; 10 mg/L): 85%
Insecticidal activity against carmine spider mite (% ) (carmine spider mite; 100 mg/L): 100%
Insecticidal activity against carmine spider mite (% ) (carmine spider mite; 600 mg/L): 100%
control against carmine spider mite (carmine spider mite; [10]): 100%
control against carmine spider mite (carmine spider mite; [6]): 100%
pest or weed control at 10 ppm (carmine spider mite; Tetranychus cinnabarinus, 72 h, 10 ppm, mortality after 72 hrs): 80 to 99%
protectant activity against corn rust in vivo (corn rust; 100 ppm): 100%
protectant activity against corn rust in vivo (corn rust; 400 ppm): 100%
protectant activity against wheat powdery mildew in vivo (wheat powdery mildew; 25 ppm): 100%
protectant activity against wheat powdery mildew in vivo (wheat powdery mildew; 100 ppm): 100%
protectant activity against wheat powdery mildew in vivo (wheat powdery mildew; 400 ppm): 100%
pest or weed control at 100 ppm (cucumber downy mildew; Cucumis sativus, 168 h): 100%
pest or weed control at 400 ppm (cucumber downy mildew; Cucumis sativus, 168 h): 100%
